Consider 30 molecules from patent US9694016B2 (Novartis AG, priority 2013, dated 2017).

Structures are written as SMILES.

One experiment deals with b-Raf (V600E) (Homo sapiens (Human), UniProt P15056, V600E). As to conditions: read-out: b-Raf IC-50; AlphaScreen, 60 min pre-incubation, 3 hours reaction. A general note: Bead proximity is the source of the signal in Alpha formats.
Sequence of b-Raf (V600E) (P15056 whole entry V600E): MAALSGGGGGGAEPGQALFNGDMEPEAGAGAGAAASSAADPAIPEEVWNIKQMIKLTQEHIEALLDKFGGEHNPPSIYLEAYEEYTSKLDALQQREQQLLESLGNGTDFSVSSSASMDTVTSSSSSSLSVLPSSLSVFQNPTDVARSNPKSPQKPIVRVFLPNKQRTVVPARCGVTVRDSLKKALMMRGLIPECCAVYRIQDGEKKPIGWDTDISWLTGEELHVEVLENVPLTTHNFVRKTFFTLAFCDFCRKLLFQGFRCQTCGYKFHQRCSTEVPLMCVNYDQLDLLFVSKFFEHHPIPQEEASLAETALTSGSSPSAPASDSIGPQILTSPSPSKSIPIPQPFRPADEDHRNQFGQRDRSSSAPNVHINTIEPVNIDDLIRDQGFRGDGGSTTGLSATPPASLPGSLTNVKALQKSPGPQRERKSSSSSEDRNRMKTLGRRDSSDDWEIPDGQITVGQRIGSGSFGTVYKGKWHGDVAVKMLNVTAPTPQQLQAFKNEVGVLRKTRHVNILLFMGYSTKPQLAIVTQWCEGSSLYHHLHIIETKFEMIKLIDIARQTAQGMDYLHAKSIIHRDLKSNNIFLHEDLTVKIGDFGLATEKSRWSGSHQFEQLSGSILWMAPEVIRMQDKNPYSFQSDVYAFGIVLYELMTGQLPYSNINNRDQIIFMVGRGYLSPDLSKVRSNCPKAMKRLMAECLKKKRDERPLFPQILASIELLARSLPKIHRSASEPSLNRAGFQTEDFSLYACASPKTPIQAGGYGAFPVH
For the molecule `Cc1ccc(NC(=O)c2ccnc(C3(C#N)CC3)c2)cc1-c1cc(N2CCOCC2)c(=O)n(C)n1` [Example 659, 2-(1-cyanocyclopropyl)-N-(4-methyl-3-(1-methyl-5-morpholino-6-oxo-1,6-dihydropyridazin-3-yl)phenyl)isonicotinamide], the IC50 was found to be 0.7 nM.

For the molecule `CCC(F)(F)c1cc(C(=O)Nc2cnc(C)c(-c3cc(N4CCOCC4)c(OC)nn3)c2)ccn1` [Example 607, 2-(1,1-difluoropropyl)-N-(5-(6-methoxy-5-morpholinopyridazin-3-yl)-6-methylpyridin-3-yl)isonicotinamide], the IC50 turned out to be 4.7 nM.

In the case of `CCC(F)(F)c1cc(C(=O)Nc2ccc(C)c(-c3cc(N4CCOCC4)c(OC)nn3)c2)ccn1` [Example 549, 2-(1,1-difluoropropyl)-N-(3-(6-methoxy-5-morpholinopyridazin-3-yl)-4-methylphenyl)isonicotinamide], the IC50 is 2.1 nM. `Cc1ncc(NC(=O)c2ccnc(C(C)(C)C#N)c2)cc1-c1cc(N2CCOCC2)nc(NC[C@H](C)O)n1` [Example 738, (S)-2-(2-cyanopropan-2-yl)-N-(5-(2-((2-hydroxypropyl)amino)-6-morpholinopyrimidin-4-yl)-6-methylpyridin-3-yl)isonicotinamide]: the IC50 is 33.2 nM. Still for that read-out and setting: next, `Cc1ccc(NC(=O)c2ccnc(C(C)(F)F)c2)cc1-c1cc(N2C3CCC2COC3)c(=O)n(C)n1` [Example 670, N-(3-(5-(3-oxa-8-azabicyclo[3.2.1]octan-8-yl)-1-methyl-6-oxo-1,6-dihydropyridazin-3-yl)-4-methylphenyl)-2-(1,1-difluoroethyl)isonicotinamide]: 2.8 nM. Turning to `CCOc1nnc(-c2cc(NC(=O)c3ccnc(C(C)(C)C#N)c3)ccc2C)cc1N1CCOC[C@H]1C` [Example 624, (R)-2-(2-cyanopropan-2-yl)-N-(3-(6-ethoxy-5-(3-methylmorpholino)pyridazin-3-yl)-4-methylphenyl)isonicotinamide], the IC50 amounted to 4.7 nM. The same measure, in the same setting: next, `Cc1ccc(NC(=O)c2cccc(C(F)(F)F)c2)cc1-c1nc(N2CCOCC2)c2cnn(C)c2n1` [Example 840, N-(4-methyl-3-(1-methyl-4-morpholino-1H-pyrazolo[3,4-d]pyrimidin-6-yl)phenyl)-3-(trifluoromethyl)benzamide]: 0.6 nM.

For the molecule `Cc1ccc(NC(=O)c2cccc(C3COC3)c2)cc1-c1cc(N2CCOCC2)n(C)c(=O)c1` [Example 492, N-(4-methyl-3-(1-methyl-6-morpholino-2-oxo-1,2-dihydropyridin-4-yl)phenyl)-3-(oxetan-3-yl)benzamide], the IC50 was found to be 3 nM. Consider `Cc1ncc(NC(=O)c2cccc(C(F)(F)F)c2)cc1-c1cc(N2CCOCC2)nc(NC2CNC2)n1` [Example 787, N-(5-(2-(azetidin-3-ylamino)-6-morpholinopyrimidin-4-yl)-6-methylpyridin-3-yl)-3-(trifluoromethyl)benzamide], for which the IC50 is 5.5 nM.

On to `Cc1ncc(NC(=O)c2ccnc(C(C)(C)C#N)c2)cc1-c1cc(N2CCOCC2)nc(N2CC(O)C2)n1` [Example 767, 2-(2-cyanopropan-2-yl)-N-(5-(2-(3-hydroxyazetidin-1-yl)-6-morpholinopyrimidin-4-yl)-6-methylpyridin-3-yl)isonicotinamide], for which the IC50 is 47.4 nM. The same measure, in the same setting: under `CCn1cc(C(=O)Nc2cnc(C)c(-c3cc(N4CCOCC4)n(C)c(=O)c3)c2)cc(C(F)(F)F)c1=O` [Example 502, N-(1′,2-dimethyl-6′-morpholino-2′-oxo-1′,2′-dihydro-[3,4′-bipyridin]-5-yl)-1-ethyl-6-oxo-5-(trifluoromethyl)-1,6-dihydropyridine-3-carboxamide] stands 20 nM. Take `Cc1ccc(NC(=O)c2cccc(C(C)(C)S(C)(=O)=O)c2)cc1-c1cc(N2CCOCC2)n(C)c(=O)c1` [Example 494, N-(4-methyl-3-(1-methyl-6-morpholino-2-oxo-1,2-dihydropyridin-4-yl)phenyl)-3-(2-(methylsulfonyl)propan-2-yl)benzamide]: the IC50 amounted to 16.8 nM.

The same experiment, now with this note: read-out: b-Raf IC-50; AlphaScreen, 60 min pre-incubation, reaction 3 hours at room temperature.
`COC(=O)NC[C@@H](C)Oc1ncc(-c2cc(NC(=O)c3cccc(C(F)(F)F)c3)cnc2C)cc1N1CCOCC1` [Example 1003, (R)-methyl(2-((2′-methyl-5-morpholino-5′-(3-(trifluoromethyl)benzamido)-[3,3′-bipyridin]-6-yl)oxy)propyl)carbamate]: the IC50 was 4.12 nM. Consider `CCOc1cc(-c2cc(NC(=O)c3ccnc(C(C)(C)O)c3)cnc2C)cc(N2CCOCC2)n1` [Example 1148, N-(2′-ethoxy-2-methyl-6′-morpholino-[3,4′-bipyridin]-5-yl)-2-(2-hydroxypropan-2-yl)isonicotinamide], for which the IC50 worked out at 11.9 nM. Regarding `Cc1ncc(NC(=O)c2ccnc(C(C)(C)O)c2)cc1-c1cnc(OC(F)F)c(N2CCOCC2)c1` [Example 979, N-(6′-(difluoromethoxy)-2-methyl-5′-morpholino-[3,3′-bipyridin]-5-yl)-2-(2-hydroxypropan-2-yl)isonicotinamide], the IC50 worked out at 13.6 nM. For the molecule `Cc1ncc(NC(=O)c2ccnc(C3CC3)c2)cc1-c1cnc(OC2CC3(COC3)C2)c(N2CCOCC2)c1` [Example 966, N-(6′-(2-oxaspiro[3.3]heptan-6-yloxy)-2-methyl-5′-morpholino-[3,3′-bipyridin]-5-yl)-2-cyclopropylisonicotinamide], the IC50 turned out to be 1.35 nM. As for `Cc1ccc(NC(=O)c2cnnc(C(F)(F)F)c2)cc1-c1cc(OCCO)nc(N2CCOCC2)c1` [Example 1164, N-(3-(2-(2-hydroxyethoxy)-6-morpholinopyridin-4-yl)-4-methylphenyl)-6-(trifluoromethyl)pyridazine-4-carboxamide], the IC50 turned out to be 0.57 nM. With `Cc1ncc(NC(=O)c2ccnc(C(F)F)c2)cc1-c1cc(N2CCOCC2)nc(N2CCOCC2)c1` [Example 1122, 2-(difluoromethyl)-N-(2-methyl-2′,6′-dimorpholino-[3,4′-bipyridin]-5-yl)isonicotinamide], the IC50 was 3.31 nM. On to `Cc1ccc(NC(=O)[C@@H]2CCN[C@H](C(F)(F)F)C2)cc1-c1cc(C2COCCO2)nc(N2CCOCC2)c1` (stereo in doubt) [Example 1132, N-(3-(2-(1,4-dioxan-2-yl)-6-morpholinopyridin-4-yl)-4-methylphenyl)-2-(trifluoromethyl)piperidine-4-carboxamide], for which the IC50 turned out to be 270 nM. In the case of `Cc1ncc(NC(=O)c2ccnc(C(C)(C)F)c2)cc1-c1cnc(OC(C)C)c(N2CCOCC2)c1` [Example 953, 2-(2-fluoropropan-2-yl)-N-(6′-isopropoxy-2-methyl-5′-morpholino-[3,3′-bipyridin]-5-yl)isonicotinamide], the IC50 amounted to 3.33 nM.

In the case of `Cc1ccc(NC(=O)c2ccnc(C(C)(F)F)c2)cc1-c1cc(N2CCOCC2)c(S(C)(=O)=O)nn1` [Example 929, 2-(1,1-difluoroethyl)-N-(4-methyl-3-(6-(methylsulfonyl)-5-morpholinopyridazin-3-yl)phenyl)isonicotinamide], the IC50 worked out at 1.05 nM.

Take `Cc1ccc(NC(=O)c2ccnc(C(C)C)c2)cc1-c1cc(N2CCOCC2)nc(N2CC(O)C2)c1` [Example 1069, N-(3-(2-(3-hydroxyazetidin-1-yl)-6-morpholinopyridin-4-yl)-4-methylphenyl)-2-isopropylisonicotinamide]: the IC50 is 2.64 nM. On the same count and under the same terms, next, `Cc1ncc(NC(=O)c2cccc(S(C)(=O)=O)c2)cc1-c1cc(N2CCOCC2)nc(N2CC(O)C2)c1` [Example 1084, N-(2′-(3-hydroxyazetidin-1-yl)-2-methyl-6′-morpholino-[3,4′-bipyridin]-5-yl)-3-(methylsulfonyl)benzamide]: 23.3 nM; `Cc1ccc(NC(=O)c2cc(C(C)(C)C#N)ccn2)cc1-c1cc(N2CCOCC2)n(C)c(=O)c1` [Example 900, 4-(2-cyanopropan-2-yl)-N-(4-methyl-3-(1-methyl-6-morpholino-2-oxo-1,2-dihydropyridin-4-yl)phenyl)picolinamide]: 3.17 nM.

The same experiment, now with this note: read-out: b-Raf IC-50; Table 2; AlphaScreen, 3 hours reaction.
In the case of `Cc1ncc(NC(=O)c2cc(C(F)(F)F)nn2C)cc1-c1cc(N2CCOCC2)c(=O)n(C)c1` [Example 382, N-(1′,2-dimethyl-5′-morpholino-6′-oxo-1′,6′-dihydro-[3,3′-bipyridin]-5-yl)-1-methyl-3-(trifluoromethyl)-1H-pyrazole-5-carboxamide], the IC50 was found to be 900 nM. With `Cn1cc(-c2cc(C(=O)Nc3cccc(C(C)(C)O)c3)cnc2Cl)cc(N2CCOCC2)c1=O` [Example 424, 2-chloro-N-(3-(2-hydroxypropan-2-yl)phenyl)-t-methyl-5′-morpholino-6′-oxo-1′,6′-dihydro-[3,3′-bipyridine]-5-carboxamide], the IC50 turned out to be 50.4 nM. For the molecule `COc1ccc(C(=O)Nc2ccc(C)c(-c3cc(N4CCOCC4)c(=O)n(C)c3)c2)cc1C(F)(F)F` [Example 339, 4-methoxy-N-(4-methyl-3-(1-methyl-5-morpholino-6-oxo-1,6-dihydropyridin-3-yl)phenyl)-3-(trifluoromethyl)benzamide], the IC50 turned out to be 1.8 nM.

On to `CCOc1ncc(-c2cc(NC(=O)c3cc(CN(C)C)cc(C(F)(F)F)c3)cnc2C)cc1N1CCOCC1` [Example 258, 3-((dimethylamino)methyl)-N-(6′-ethoxy-2-methyl-5′-morpholino-[3,3′-bipyridin]-5-yl)-5-(trifluoromethyl)benzamide], for which the IC50 came out at 8.3 nM. On the same count and under the same terms, next, `COc1ncc(-c2cc(NC(=O)c3ccnc(C(F)(F)F)c3)cnc2C)cc1N1CCOCC1` [Example 324, N-(6′-methoxy-2-methyl-5′-morpholino-[3,3′-bipyridin]-5-yl)-2-(trifluoromethyl)isonicotinamide]: 7.4 nM; `Cc1ccc(NC(=O)c2ccnc(C(C)(C)C#N)c2)cc1-c1cc(N2CCOCC2)c(=O)n(CCC#N)c1` [Example 335, N-(3-(1-(2-cyanoethyl)-5-morpholino-6-oxo-1,6-dihydropyridin-3-yl)-4-methylphenyl)-2-(2-cyanopropan-2-yl)isonicotinamide]: 4.4 nM.
